Test results as given in PMC9409995, “Pharmacological Properties and Function of the PxOctβ3 Octopamine Receptor in Plutella xylostella (L.)” (Insects, 2022).

Columns and labels:
[1] = biological target: T1, PxOctβ3 (Plutella xylostella, UniProt Z9TZ33AL48); assay: intracellular cAMP assay, HEK-293 cells stably expressing the receptor; assay type: cell-based
T1 construct: pcDNA3.1-PxOctβ3 stably expressed in HEK-293 cells; ORF also cloned in pEGFP-N1

[2] = biological target: T1, PxOctβ3; assay: as above; assay type: cell-based; settings: agonist; 1 nM-100 μM; b43 prints approximately 65 nM

SMILES | fold cAMP at 10 μM ([1]; weak agonist) | fold cAMP at 10 μM ([1]; agonist) [fold] | further results
NCCc1ccccc1 [2-phenylethylamine] | clonidine, amitraz, and 2-phenylethylamine were barely effective agonists | – | –
NCCc1ccc(O)c(O)c1 [dopamine] | – | 2.3 | –
Cc1ccc(/N=C/N(C)/C=N/c2ccc(C)cc2C)c(C)c1 [amitraz] | clonidine, amitraz, and 2-phenylethylamine were barely effective agonists | – | –
NCCc1ccc(O)cc1 [tyramine] | – | 9.6 | –
NC[C@H](O)c1ccc(O)cc1 [octopamine] | – | – | EC50 [2]: 65 nM
Clc1cccc(Cl)c1NC1=NCCN1 [clonidine] | clonidine, amitraz, and 2-phenylethylamine were barely effective agonists | – | –
